Measurements reported in patent publication US10125358B2, “Methods and compounds for increasing threonyl-tRNA synthetase activity” (UNIVERSITY OF VERMONT AND STATE AGRICULTURAL COLLEGE, priority 2012, dated 2018).
pKi: −log10 of the molar value. “Also recorded” adds a separate entry of the source.

Assays:
TARS [1] = biological target: T1, TARS (Homo sapiens, UniProt P26639); test: Ap4A formation assay (TLC, [α-32P]-ATP); format: biochemical; design: His6 (N); made in house; host or cells: E. coli Rosetta 2 (DE3)pLysS, plasmid pET28a hctThrRS; conditions: 10 μM compound
T1 sequence (P26639 1-723): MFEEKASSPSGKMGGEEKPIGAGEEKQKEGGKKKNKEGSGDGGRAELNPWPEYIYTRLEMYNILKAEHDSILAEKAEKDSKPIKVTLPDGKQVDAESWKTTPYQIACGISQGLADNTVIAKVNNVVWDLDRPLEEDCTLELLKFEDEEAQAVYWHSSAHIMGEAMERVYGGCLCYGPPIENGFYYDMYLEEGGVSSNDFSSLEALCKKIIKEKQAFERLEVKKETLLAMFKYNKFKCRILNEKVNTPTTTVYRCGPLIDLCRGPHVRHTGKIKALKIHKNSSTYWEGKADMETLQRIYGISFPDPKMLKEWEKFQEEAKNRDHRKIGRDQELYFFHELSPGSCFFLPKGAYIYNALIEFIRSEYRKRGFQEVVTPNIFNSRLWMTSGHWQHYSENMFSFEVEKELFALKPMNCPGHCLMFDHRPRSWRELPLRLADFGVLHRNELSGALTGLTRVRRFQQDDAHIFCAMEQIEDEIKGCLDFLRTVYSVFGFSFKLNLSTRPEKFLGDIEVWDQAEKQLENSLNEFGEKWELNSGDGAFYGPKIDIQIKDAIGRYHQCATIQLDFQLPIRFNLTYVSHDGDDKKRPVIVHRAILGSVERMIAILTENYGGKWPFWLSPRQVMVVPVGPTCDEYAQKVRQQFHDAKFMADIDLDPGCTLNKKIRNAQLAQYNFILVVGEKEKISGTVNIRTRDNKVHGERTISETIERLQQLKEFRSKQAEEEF

TARS [2] = biological target: T1, TARS; test: Ki of borrelidin compounds for TARS; format: biochemical; conditions: calculated; data not shown
TARS [3] = biological target: T1, TARS; test: Ap4G formation assay (TLC, [α-32P]-GTP); format: biochemical; design: His6 (N); made in house; host or cells: E. coli Rosetta 2 (DE3)pLysS, plasmid pET28a hctThrRS; conditions: human TARS, 10 μM compound
SKOV-3 cells = test: HIF-1α stabilization in hypoxia (Western blot); format: cell-based; conditions: for HIF-1α protein stabilization: hypoxia (2% O2), 6 h
Experimental: After treatments, cells were harvested into sample buffer containing: 0.2 M Tris-HCL, 4% SDS, 4% β-mercaptoethanol, 40% glycerol, 4 μM pyronin Y. Extracts were sheared through a 24-gauge syringe. Samples were separated by 10% SDS-PAGE and transferred to nitrocellulose membrane and probed with rabbit polyclonal anti-TARS (1:500; Santa Cruz Biotechnology, Dallas, Tex.) or monoclonal anti-HIF-1α (BD Transduction Laboratories, [BD Biosciences, San Jose, Calif.]) (Lounsbury, Beddow et al. 1994). Secondary antibodies were HRP-goat-anti-mouse and HRP-goat-anti-rabbit (1:5,000; Jackson Laboratories, Bar Harbor, Me.).

TARS [4] = biological target: T1, TARS; test: GTPase (GTP hydrolysis) assay; format: biochemical; design: His6 (N); made in house; host or cells: E. coli Rosetta 2 (DE3)pLysS, plasmid pET28a hctThrRS; conditions: 10 μM compound
[5] = tested on: chorioallantoic membrane (CAM) of chicken embryos; test: Chick chorioallantoic membrane (CAM) assay; format: in vivo; conditions: purified protein applied daily to gelfoam sponge, 72 h
Experimental: Chick Chorioallantoic Membrane Assay—
Fertilized chicken eggs (Sunrise Farms, Catskill, N.Y.) day 1-2 post-laying were incubated in a humidified incubator at 37° C. for 72 h. Cleaned eggs were cracked and plated in a sterile 10 cm^2 tissue culture-treated dish and incubated at 37° C. for another 7 days. On developmental day 10, 1 mm^3 sterile gelatin sponge pieces (Surgifoam®; Johnson & Johnson Wound Management, Somerville, N.J.) were placed within the outer one-third of the membrane between large vessels. […] All compounds were applied in 10 μl to the CAM every 24 h for 72 h. Images were taken using a Leica MZ6 stereomicroscope every 24 h. Compounds were scored according to a modified version of Intensity Scoring as previously described (Ribatti, Nico et al. 2006). Briefly, each experimental condition was given a blinded score from 0-5 based on the change in the extent of vessel convergence and formation in proximity to the sponge from day 0 to day 3. Total score is averaged individual experimental condition scores from at least 15 replicates.
Fertilized chicken embryos were cultured ex-ova and, starting at developmental day 10, agents were applied daily to gelfoam sponges on the CAM. Images were recorded daily over 72 h and scored blindly according to a modified version Intensity Scoring as previously described (Ribatti, Nico et al. 2006). Additional details regarding methods are provided in the Methods and Materials section of Example 1.

HUVEC = test: Transwell migration assay; format: cell-based, human; conditions: 100 nM protein in migration compartment, 4 h
Experimental: Transwell Migration Assay—
Migration was assessed using transwell inserts (Svensson, Kucharzewska et al. 2011). […] Cultures were incubated for 4 h, fixed in 10% formalin, and stained with 10 μg/ml DAPI solution (Roche) following removal of cells from the top layer of the chamber with a cotton swab. Migrated cells were imaged using a 4× objective on the Olympus IX70 Inverted microscope (Olympus). DAPI-stained nuclei were counted using ImageJ software.

[6] = LARS steady state ATPase activity (32P-ATP to AMP); format: biochemical; conditions: 1 μM human LARS
Experimental: LARS steady state ATPase activity was determined using the same procedure as for TARS aminoacylation with the following modifications. […] ATP (PerkinElmer, Waltham, Mass.) was added. Reactions were incubated for 3 minutes at 37° C. and initiated with the addition of 1 μM human LARS. At various time points 5 μl aliquots were quenched in 45 μl of 500 mM sodium acetate and 0.1% sodium dodecyl sulfate. For each sample, 1 μl was spotted onto a CCM cellulose PEI F plates (EMD) and resolved via thin-layer chromatography in 0.75 M potassium phosphate buffer mobile phase. Radioactive signals were detected via phosphorimaging and AMP production overtime was quantified using Quantity One v 4.6.6 software (Bio-Rad, Hercules, Calif.).

| Compound | Ap4A synthesis, inhibition (qualitative) (TARS [1]; human TARS) | decrease in Ap4A formation activity (TARS [1]; wildtype TARS) [%] | pKi (TARS [2]) | Ap4G synthesis, inhibition (qualitative) (TARS [3]) | HIF-1α transcription (SKOV-3 cells; SK-OV3 cells responding to hypoxia) | HIF-1α protein stabilization (SKOV-3 cells) | HIF-1α protein stabilization (SKOV-3 cells; listed as BC144) | change of TARS GTPase activity upon treatment with inhibitor (TARS [4]) | CAM vessel formation / vascularity, effect of applied synthetase [5] | migration of endothelial cells (HUVEC) | LARS enzyme activity (conversion of 32P-ATP to AMP) [6] |
| --- | --- | --- | --- | --- | --- | --- | --- | --- | --- | --- | --- |
| C[C@@H]1C[C@H](C)C[C@H](C)[C@@H](O)CC(=O)O[C@H]([C@@H]2CCC[C@H]2C(=O)O)C/C=C/C=C(/C#N)[C@H](O)[C@@H](C)C1 [borrelidin] | at least partially inhibited | 59.4 | 8.34 | at least partially inhibited | no change in HIF-1α transcription | reduce HIF-1α stabilization | diminished the levels of HIF-1α protein stabilization | no observable change | – | – | – |
| LARS: N-terminal HIS6-tagged human leucyl tRNA synthetase purified from E. coli | – | – | – | – | – | – | – | – | no observable effect; also recorded: no effect on angiogenesis | did not affect migration | exhibits enzyme activity |
